In patent publication US20200399308A1, “COMPOUNDS AND METHODS FOR ELICITING ANTIMICROBIAL ACTIVITY” (Technion Research & Development Foundation Limited, priority 2018, published 2020):
Values after ≈ are worked out from the molar mass of the structure shown. Where two headings read alike, the source gives them in different places. Non-standard residues stand in square brackets, D forms with d. Residues, ends and D or L forms follow the SMILES beside them. *: point of attachment. 12Ado = NCCCCCCCCCCCC(=O)O; Decanoyl = CCCCCCCCCC(=O)*; Octanoyl = CCCCCCCC(=O)*

What was measured:
[1] = Charge at physiological pH (Q); type: physicochemical
Hemolytic assay = type: cell-based; conditions: fresh mouse red blood cells (1%); hemolysis of 50% of mouse red blood cells (1%) after 3 hours in PBS; read-out: LC50, fifty percent lethal concentration (hemolysis)
Procedure: (§1) Organization of the compounds in aqueous solution was assessed by light-scattering measurements in phosphate buffered saline (PBS; 10 mM Na2HPO4, 150 mM NaCl, pH=7.0). Hemolytic assays were performed as described elsewhere, using fresh mouse red blood cells.
(§2) The mean value (±SD) is shown for Compound C; Minimum inhibitory concentration (MIC) of compounds required to inhibit bacterial proliferation after overnight incubation.

[2] = tested on: Escherichia coli mutant ML-35p; experiment: Outer and cytoplasmic membrane permeabilization (nitrocefin / ONPG); type: cell-based; conditions: E. coli ML-35p, buffer, 16 minutes after addition
Procedure: Membrane permeabilization was assessed using E. coli ML-35p as described elsewhere, to monitor the ability of the compounds to perturb the outer and/or cytoplasmic membranes. Reported data were obtained from ≥2 independent experiments performed in duplicate.
Additional support for this view was obtained by comparing the compounds' susceptibility to damage gram-negative bacteria membranes, using the E. coli mutant ML-35p. Widely described in the literature, the mutant was considered herein as representative of all gram-negative bacteria, rather than a specific species. This mutant is constitutive for cytoplasmic β-galactosidase, lacks lactose permease, and expresses a plasmid-encoded periplasmic β-lactamase. Two chromogenic reporter molecules (nitrocefin and 2-nitrophenyl β-d-galactopyranoside, respectively, absorbing at 486 and 420 nm) were used to monitor permeabilization of the outer membrane and/or cytoplasmic membrane in a single assay.

[3] = Critical aggregation concentration by light scattering in PBS; type: physicochemical; conditions: light scattering in phosphate-buffered saline
Procedure: as §1, §2

[4] = tested on: Klebsiella pneumoniae 1287; experiment: Minimal inhibitory concentration; type: cell-based
Procedure: (§3) Minimal inhibitory concentrations (MICs) were determined as previously described. […] MICs were determined by microdilution susceptibility testing in 96-well plates (by Nunc) using inocula of 10^5 bacteria per ml. Cell populations were evaluated by optical density measurements at 620 nm and were calibrated against a set of standards. Hundred (100) μl of a bacterial suspension were added to 100 μl of culture medium (control) or to 100 μl of culture medium containing various tested compound concentrations in 2-fold serial dilutions. Inhibition of proliferation was determined by optical density measurements at 620 nm after an incubation period of 24 hours at 37° C. Data were obtained from ≥2 independent experiments performed in duplicate.
as §2

[5] = tested on: Salmonella enterica serovar Choleraesuis 7308; experiment: Minimal inhibitory concentration; type: cell-based
Procedure: as §3, §2

[6] = tested on: Klebsiella pneumoniae C2 (carbapenemase 2-producing strain); experiment: Minimal inhibitory concentration; type: cell-based
Procedure: as §3, §2

Escherichia coli ML35p = experiment: Minimal inhibitory concentration; type: cell-based; conditions: Ec ML35p, overnight incubation
Procedure: as §3, §2

Escherichia coli 25922 [7] = experiment: Minimal inhibitory concentration; type: cell-based
Procedure: as §3, §2

[8] = tested on: Pseudomonas aeruginosa 11816; experiment: Minimal inhibitory concentration; type: cell-based
Procedure: as §3, §2

[9] = tested on: Salmonella enterica serovar Typhimurium 14028; experiment: Minimal inhibitory concentration; type: cell-based
Procedure: as §3, §2

[10] = tested on: Pseudomonas aeruginosa 11662; experiment: Minimal inhibitory concentration; type: cell-based
Procedure: as §3, §2

[11] = Hydrophobicity (H) by HPLC elution from C18 column; type: physicochemical; conditions: percentage of acetonitrile required for elution
OM = experiment: Outer membrane damage by less hydrophobic analogs; type: cell-based
E. coli strain 35218 = experiment: Checkerboard antibiotic MIC with Compound B; type: cell-based, Escherichia coli
Procedure: as §3
(§4) Shown in parentheses are calculated sensitization factor, defined as antibiotic's MICs ratio (in absence vs. presence of Compound B) at specified Compound B concentration.

E. coli strain 14182 = experiment: Checkerboard antibiotic MIC with Compound B; type: cell-based, Escherichia coli
Procedure: as §3, §4

E. coli strain 14384 = experiment: Checkerboard antibiotic MIC with Compound B; type: cell-based, Escherichia coli
Procedure: as §3, §4

E. coli strain 25922 = experiment: Checkerboard antibiotic MIC with Compound B; type: cell-based, Escherichia coli
Procedure: as §3, §4

E. coli strain 16327 = experiment: Checkerboard antibiotic MIC with Compound B; type: cell-based, Escherichia coli
Procedure: as §3, §4

[12] = Subcutaneous 25 mg/kg, published data, cited from earlier work
E. coli 25922 [13] = experiment: Simultaneous versus delayed drug exposure assay in LB; type: cell-based, Escherichia coli; conditions: Compound B 10 μM with 0.06 μg/ml rifampin or 4 μg/ml erythromycin, LB
Procedure: (§5) Time-kill kinetics data were determined using 100 μl of bacterial suspension (10^6 CFU/ml), which was added to […] LB containing none of or specified concentrations of the tested compound, antibiotic, and combinations thereof. After the specified exposure time points (37° C. under shaking), aliquots were formed, subjected to serial 10-fold dilutions in saline (0.85% NaCl), and plated for bacterial enumeration after additional 24 hours incubation at 37° C. Time-kill experiments in human and mouse plasma were performed as described elsewhere. The effects of drug delay were assessed in LB, except that bacteria were pre-incubated with the tested compound or antibiotic for the specified time points, centrifuged, and resuspended in fresh LB-containing antibiotic or the tested compound, respectively, and incubated for 3 hours before CFU enumeration.

E. coli 25922 [14] = experiment: Time-kill kinetics in broth versus plasma; type: cell-based, Escherichia coli
Procedure: as §5

Escherichia coli 25922 [15] = experiment: Mouse peritonitis-sepsis model; type: in vivo; conditions: neutropenic ICR mice; erythromycin 100 mg/kg s.c. + Compound B […] s.c.
Procedure: A mouse peritonitis-sepsis model was created as described elsewhere. Infection was obtained after intraperitoneal injection of bacteria from a logarithmic-phase culture. Infected mice were treated subcutaneously. The doses were selected to allow comparison with the reference compound and to remain below the maximum tolerated dose after double-dose administration. […] Briefly, mouse peritonitis sepsis model for in vivo studies were performed using male ICR mice ([…]) obtained from Envigo Laboratories (Rehovot, Israel). […] Infection was obtained by intraperitoneal injection of a logarithmic phase culture of E. coli 25922 (1.3±0.2×10^6 CFU permouse in 0.3 ml PBS). […] Infection control mice were injected with the PBS vehicle. Mouse survival was monitored for up to 7 days after treatment. Statistical analyses were performed by paired Student's t test, at α=0.05.

[16] = 20 mg/kg body weight; reported; cited from earlier work
Escherichia coli 25922 [17] = experiment: Mouse thigh infection model; type: in vivo; conditions: normal mice inoculated intramuscularly, treated s.c. 1 hour thereafter, CFU 24 hours post-treatment
Procedure: Mouse thigh infection model was afforded from normal ICR mice, which were inoculated intramuscularly and treated subcutaneously 1 hour thereafter with a tested compound or polymyxin B (PMB; Sigma-Aldrich) as described elsewhere. P values were calculated using a 1-tailed t test (assuming unequal variance). A P value of <0.05 is considered statistically significant.

E. coli 25922 [18] = experiment: Ethidium bromide permeability assay; type: cell-based, Escherichia coli; conditions: t=20 minutes
Procedure: Ethidium bromide permeability assays were performed as follows: Overnight cultures were adjusted to 1.0 OD (600 nm) and centrifuged for 5 minutes at 15,000 g. Pellets were washed twice with PBS containing 0.5% glucose, resuspended, and incubated for 10 minutes at 37° C. with shaking. A […] suspension was mixed in a black 96-well plate with […] of the tested compound and ethidiumbromide (1 μg/ml), and the fluorescence was recorded (excitation 535 nm, emission 590 nm) for up to 30 minutes at 37° C. with shaking. Data were obtained from at least 2 independent experiments.
(FU denotes fluorescence units; triangles denote Compound B, circles denote PMB, squares denote untreated control; error bars=SD).

CCCCCCCCCC(=O)NC(CCCCN)C(=O)NC(CCCCN)C(=O)NCCCCCCCCCCCC(=O)NC(CCCCN)C(N)=O (stereo not drawn) [Compound A] (Decanoyl-KK[12Ado]K-NH2; configuration not given here)
Q, charge at physiological pH [1]: 3
CC50 at 3 h (Hemolytic assay): > 100 µM
cytoplasmic membrane permeabilization [2]: similarly unable to permeabilize the cytoplasmic membrane at least up to approximately 10 μM
outer membrane permeabilization [2]: similarly potent in inducing outer membrane permeabilization
CAC, critical aggregation concentration [3]: >100 µM
MIC [4]; 1287: > 50 µM
MIC ([5]; CHOLERAESUIS / SC7308): > 50 µM
MIC [6]: > 50 µM
MIC (Escherichia coli ML35p): > 50 µM
MIC (Escherichia coli 25922 [7]; 25922): > 50 µM
MIC [8]; 11816: > 50 µM
MIC [9]: > 50 µM
MIC [10]; 11662: > 50 µM
H, hydrophobicity [11]: 44%

CCCCCCCC(=O)N[C@@H](CCCCN)C(=O)N[C@@H](CCCCN)C(=O)NCCCCCCCCCCCC(=O)N[C@@H](CCCCN)C(N)=O [Compound C8KKC12K] (Octanoyl-KK[12Ado]K-NH2)
damage to the OM (OM): able to damage the OM

CCCCCCCCCC(=O)NC(CCCNC(=N)N)C(=O)NC(CCCNC(=N)N)C(=O)NCCCCCCCCCCCC(=O)NC(CCCNC(=N)N)C(N)=O (stereo not drawn) [Compound C] (Decanoyl-RR[12Ado]R-NH2; configuration not given here)
Q, charge at physiological pH [1]: 3
CC50 at 3 h (Hemolytic assay): 80 ± 1 µM
cytoplasmic membrane permeabilization [2]: somewhat higher tendency for cytoplasmic membrane damaging
CAC, critical aggregation concentration [3]: >100 µM
MIC ([4]; Kp 1287, overnight incubation, read-out: MIC): 50 µM (≈ 41.9 µg/mL)
MIC ([5]; CHOLERAESUIS / SC7308, SC 7308, overnight incubation, read-out: MIC): > 50 µM
MIC ([6]; Kp C2, overnight incubation, read-out: MIC): > 50 µM
MIC (Escherichia coli ML35p): 12.5 µM (≈ 10.5 µg/mL)
MIC (Escherichia coli 25922 [7]; Ec 25922, overnight incubation, read-out: MIC): 25 µM (≈ 20.9 µg/mL)
MIC ([8]; Pa 11816, overnight incubation, read-out: MIC): 50 µM (≈ 41.9 µg/mL)
MIC ([9]; ST 14028, overnight incubation, read-out: MIC): > 50 µM
MIC ([10]; Pa 11662, overnight incubation, read-out: MIC): 50 µM (≈ 41.9 µg/mL)
H, hydrophobicity [11]: 46%

CC[C@H]1OC(=O)[C@H](C)[C@@H](O[C@H]2C[C@@](C)(OC)[C@@H](O)[C@H](C)O2)[C@H](C)[C@@H](O[C@@H]2O[C@H](C)C[C@H](N(C)C)[C@H]2O)[C@](C)(O)C[C@@H](C)C(=O)[C@H](C)[C@@H](O)[C@]1(C)O [Erythromycin, erythromycin]
Antibiotic MIC in the presence of Compound B (E. coli strain 35218; Compound B 2.5 μM): 4 µg/mL
Antibiotic MIC in the presence of Compound B (E. coli strain 35218; Compound B 5 μM): 1 µg/mL
Antibiotic MIC in the presence of Compound B (E. coli strain 35218; Compound B 10 μM): 0.5 µg/mL
Antibiotic MIC in the presence of Compound B (E. coli strain 35218; Compound B […]): 64 µg/mL
Antibiotic MIC in the presence of Compound B (E. coli strain 14182; Compound B 2.5 μM): 16 µg/mL
Antibiotic MIC in the presence of Compound B (E. coli strain 14182; Compound B 5 μM): 4 µg/mL
Antibiotic MIC in the presence of Compound B (E. coli strain 14182; Compound B 10 μM): 1 µg/mL
Antibiotic MIC in the presence of Compound B (E. coli strain 14384; Compound B 0 μM): >512 µg/mL
Antibiotic MIC in the presence of Compound B (E. coli strain 14384; Compound B 2.5 μM): 2 µg/mL
Antibiotic MIC in the presence of Compound B (E. coli strain 14384; Compound B 5 μM): 1 µg/mL
Antibiotic MIC in the presence of Compound B (E. coli strain 14384; Compound B 10 μM): 0.5 µg/mL
Antibiotic MIC in the presence of Compound B (E. coli strain 14384; Compound B […]): 64 µg/mL
Antibiotic MIC in the presence of Compound B (E. coli strain 25922; Compound B 2.5 μM): 2 µg/mL
Antibiotic MIC in the presence of Compound B (E. coli strain 25922; Compound B 5 μM): 0.5 to 1 µg/mL
Antibiotic MIC in the presence of Compound B (E. coli strain 25922; Compound B 10 μM): 0.25 µg/mL
Antibiotic MIC in the presence of Compound B (E. coli strain 25922; Compound B […]): 8 µg/mL
Antibiotic MIC in the presence of Compound B (E. coli strain 16327; Compound B 0 μM): 512 µg/mL
Antibiotic MIC in the presence of Compound B (E. coli strain 16327; Compound B 2.5 μM): 4 µg/mL
Antibiotic MIC in the presence of Compound B (E. coli strain 16327; Compound B 5 μM): 1 µg/mL
Antibiotic MIC in the presence of Compound B (E. coli strain 16327; Compound B 10 μM): 0.5 µg/mL
Antibiotic MIC in the presence of Compound B (E. coli strain 16327; Compound B […]): 64 µg/mL
Plasma concentration ([12]; 0.5 h): 3.7 µg/mL
Plasma concentration ([12]; 1 h): 2.3 µg/mL
Plasma concentration ([12]; 2 h): 0.4 µg/mL
effect of delayed exposure on sensitization by Compound B (E. coli 25922 [13]): delay by up to 60 (but not 120) minutes revealed maintenance of the sensitization activity
effect on CFU count (E. coli 25922 [14]; LB broth, 24-hours end point, erythromycin 3 μg/ml combined with Compound B 0.6 μM): did not alter the CFU count
time to accomplish the CFU reduction (more than 3 log units) (E. coli 25922 [14]; human plasma, antibiotic with Compound B 0.6 μM): ≤ 3 hours
combined action with Compound B (E. coli 25922 [14]; mouse plasma, 24 hours end point, Compound B 10 μM with rifampin 1 μg/ml or erythromycin 3 μg/ml): expressed synergism of action
efficacy of combination vs individual administrations (Escherichia coli 25922 [15]): clearly more effective in combination

polymyxin B [PMB]
mortality [16]: zero
reduction of the number of inoculated E. coli (Escherichia coli 25922 [17]): 64%
CM permeability to ethidium bromide (E. coli 25922 [18]): increased significantly more than Compound B
